The assay deals with BDF1 mice, P388 leukemia ip, median survival T/C. Briefly: NCI In Vivo Anticancer Drug Screen. Data for tumor model P388 Leukemia (intraperitoneal) in B6D2F1 (BDF1) mice. The note with it: endpoint: median survival time, higher = longer survival. In a few lines:
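In tumour-bearing mice, survival after compound treatment is set against the vehicle group and given as a quotient.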

Setting [1] is: dose: 50.0 mg/kg/injection, schedule: Q01DX009 (ip), vehicle: saline with Tween-80.
Setting [2] is: dose: 100.0 mg/kg/injection, schedule: Q01DX009 (ip), vehicle: saline with Tween-80.
[3] abbreviates: dose: 200.0 mg/kg/injection, schedule: Q01DX009 (ip), vehicle: saline with Tween-80.
[4] abbreviates: dose: 400.0 mg/kg/injection, schedule: Q01DX009 (ip), vehicle: saline with Tween-80.

The structures appear in SMILES notation. Values joined by “and” are separate entries in the source; they are usually repeats but may differ in a detail not shown here. Identical values can stand only once. Inconclusive results and toxic doses are left out.

The results in this text go back to PubChem BioAssay AID328 (DTP/NCI, 2004).

As for `COc1ccc2c(c1)CCN1C2CCN2C(=O)CCC21` (stereo unspecified), the T/C reads like this: (dose: 100.0 mg/kg/injection, schedule: Q01DX009 (ip), vehicle: saline sonified) 104 % of control; (dose: 200.0 mg/kg/injection, schedule: Q01DX009 (ip), vehicle: saline sonified) 113 % of control; (dose: 400.0 mg/kg/injection, schedule: Q01DX009 (ip), vehicle: saline sonified) 100 % of control.

Turning to `CCN(CC)c1ccc2cc3ccc(=[N+](CC)CC)cc-3oc2c1`, the T/C is 120 % of control (dose: 2.5 mg/kg/injection, schedule: Q01DX009 (ip), vehicle: saline); 120 % of control (dose: 7.5 mg/kg/injection, schedule: Q01DX009 (ip), vehicle: saline sonified); 104 % of control (dose: 10.0 mg/kg/injection, schedule: Q04DX003 (ip), vehicle: saline).

In the case of `CC(=O)OCC(CO)(CO)CO`, the T/C is 100 % of control (dose: 100.0 mg/kg/injection, schedule: Q04DX003 (ip), vehicle: saline); 100 % of control (dose: 200.0 mg/kg/injection, schedule: Q04DX003 (ip), vehicle: saline); 100 % of control (dose: 400.0 mg/kg/injection, schedule: Q04DX003 (ip), vehicle: saline).

As for `CC(=O)C(C)=P(c1ccccc1)(c1ccccc1)c1ccccc1`, the T/C by setting is: (dose: 25.0 mg/kg/injection, schedule: Q01DX009 (ip), vehicle: saline) 102 % of control; (dose: 50.0 mg/kg/injection, schedule: Q01DX009 (ip), vehicle: saline) 120 % of control; (dose: 200.0 mg/kg/injection, schedule: Q01DX009 (ip), vehicle: saline) 113 % of control; (dose: 400.0 mg/kg/injection, schedule: Q01DX009 (ip), vehicle: saline) 98 % of control.

In the case of `CCOC(=O)N(CCN(C(=O)OCC)c1ccccc1)c1ccccc1`, the T/C by setting is: under setting [1], 98 % of control; under setting [2], 108 % of control; under setting [3], 110 % of control.

On to `CN(Cc1cnc2nc(N)nc(N)c2n1)c1ccc(C(=O)N[C@@H](CCC(=O)O)C(=O)O)cc1`, for which the T/C (dose: 0.37 mg/kg/injection, schedule: Q01DX009 (ip), vehicle: sodium bicarbonate) was 172 % of control; the T/C (dose: 0.38 mg/kg/injection, schedule: Q01DX009 (ip), vehicle: saline) is 150 % of control and 155 % of control; the T/C (dose: 0.5 mg/kg/injection, schedule: Q01DX005 (ip), vehicle: saline with Tween-80) is 113 % of control; the T/C (dose: 0.5 mg/kg/injection, schedule: Q01DX005 (ip), vehicle: saline) is 184 % of control; the T/C (dose: 0.5 mg/kg/injection, schedule: Q01DX009 (ip), vehicle: saline with Tween-80) is 163 % of control; the T/C (dose: 0.5 mg/kg/injection, schedule: Q01DX009 (ip), vehicle: sodium bicarbonate) is 176 % of control. Further, the T/C (dose: 0.5 mg/kg/injection, schedule: Q01DX010 (ip), vehicle: other) was 245 % of control; the T/C (dose: 0.75 mg/kg/injection, schedule: Q01DX009 (ip), vehicle: saline) is 190 % of control and 195 % of control; the T/C (dose: 0.75 mg/kg/injection, schedule: Q01DX009 (ip), vehicle: sodium bicarbonate) is 209 % of control; the T/C (dose: 0.9 mg/kg/injection, schedule: Q01DX009 (ip), vehicle: sodium bicarbonate) was 171 % of control and 190 % of control and 203 % of control; the T/C (dose: 1.0 mg/kg/injection, schedule: Q01DX005 (ip), vehicle: saline with Tween-80) was 104 % of control; the T/C (dose: 1.0 mg/kg/injection, schedule: Q01DX005 (ip), vehicle: saline) is 194 % of control. Moreover, the T/C is 181 % of control (dose: 1.0 mg/kg/injection, schedule: Q01DX009 (ip), vehicle: saline with Tween-80); 236 % of control and 150 % of control and 181 % of control (dose: 1.0 mg/kg/injection, schedule: Q01DX009 (ip), vehicle: sodium bicarbonate); 300 % of control (dose: 1.0 mg/kg/injection, schedule: Q01DX010 (ip), vehicle: other); 228 % of control and 179 % of control and 205 % of control (dose: 1.3 mg/kg/injection, schedule: Q01DX009 (ip), vehicle: sodium bicarbonate); 229 % of control and 222 % of control (dose: 1.5 mg/kg/injection, schedule: Q01DX009 (ip), vehicle: saline); 222 % of control (dose: 2.0 mg/kg/injection, schedule: Q01DX009 (ip), vehicle: saline with Tween-80). In addition, the T/C is, setting by setting: (dose: 2.25 mg/kg/injection, schedule: Q01DX009 (ip), vehicle: sodium bicarbonate) 231 % of control; (dose: 2.3 mg/kg/injection, schedule: Q01DX009 (ip), vehicle: sodium bicarbonate) 227 % of control and 239 % of control and 263 % of control; (dose: 3.0 mg/kg/injection, schedule: Q01DX009 (ip), vehicle: saline) 231 % of control and 236 % of control; (dose: 3.0 mg/kg/injection, schedule: Q01DX009 (ip), vehicle: sodium bicarbonate) 95 % of control and 100 % of control; (dose: 3.5 mg/kg/injection, schedule: Q01DX009 (ip), vehicle: sodium bicarbonate) 241 % of control and 244 % of control and 104 % of control; (dose: 8.64 mg/kg/injection, schedule: Q04DX003 (ip), vehicle: sodium bicarbonate) 182 % of control. For the same compound, the T/C (dose: 10.0 mg/kg/injection, schedule: Q04DX004 (ip), vehicle: sodium bicarbonate) is 243 % of control; the T/C (dose: 14.4 mg/kg/injection, schedule: Q04DX003 (ip), vehicle: sodium bicarbonate) was 199 % of control; the T/C (dose: 15.0 mg/kg/injection, schedule: Q04DX004 (ip), vehicle: sodium bicarbonate) is 250 % of control; the T/C (dose: 20.0 mg/kg/injection, schedule: Q04DX003 (ip), vehicle: sodium bicarbonate) is 221 % of control; the T/C (dose: 20.0 mg/kg/injection, schedule: Q04DX004 (ip), vehicle: sodium bicarbonate) was 248 % of control; the T/C (dose: 24.0 mg/kg/injection, schedule: Q04DX003 (ip), vehicle: sodium bicarbonate) was 202 % of control. The T/C runs as follows: (dose: 25.0 mg/kg/injection, schedule: Q04DX003 (ip), vehicle: sodium bicarbonate) 292 % of control; (dose: 25.0 mg/kg/injection, schedule: Q04DX004 (ip), vehicle: sodium bicarbonate) 248 % of control; (dose: 30.0 mg/kg/injection, schedule: Q04DX003 (ip), vehicle: sodium bicarbonate) 238 % of control; (dose: 40.0 mg/kg/injection, schedule: Q04DX003 (ip), vehicle: sodium bicarbonate) 237 % of control.

In the case of `Cn1cnc([N+](=O)[O-])c1S(=O)(=O)NCN1CCOCC1`, the T/C is, setting by setting: (dose: 12.5 mg/kg/injection, schedule: Q01DX009 (ip), vehicle: Klucel (hydroxypropylcellulose) (HPC)) 118 % of control; (dose: 50.0 mg/kg/injection, schedule: Q01DX009 (ip), vehicle: Klucel (hydroxypropylcellulose) (HPC)) 121 % of control; (dose: 100.0 mg/kg/injection, schedule: Q01DX009 (ip), vehicle: Klucel (hydroxypropylcellulose) (HPC)) 116 % of control.

Consider `O=c1[nH]c(=O)n(CCc2cccs2)cc1F`, for which the T/C under setting [1] is 106 % of control; the T/C under setting [2] is 101 % of control; the T/C (dose: 100.0 mg/kg/injection, schedule: Q04DX003 (ip), vehicle: saline with Tween-80) was 94 % of control; the T/C under setting [3] was 108 % of control; the T/C (dose: 200.0 mg/kg/injection, schedule: Q04DX003 (ip), vehicle: saline with Tween-80) was 108 % of control; the T/C under setting [4] is 90 % of control. For the same compound, the T/C (dose: 400.0 mg/kg/injection, schedule: Q04DX003 (ip), vehicle: saline with Tween-80) is 92 % of control.

With `c1cc[c]([Sn]([c]2ccccc2)([c]2ccccc2)[c]2ccccc2)cc1`, the T/C runs as follows: under setting [2], 94 % of control; under setting [3], 94 % of control; under setting [4], 97 % of control.

With `CC(=O)OCC(=O)[C@@]1(O)CC[C@H]2[C@@H]3CCC4=CC(=O)CC[C@]4(C)[C@@]3(Cl)[C@@H](O)C[C@@]21C`, the T/C (dose: 18.7 mg/kg/injection, schedule: Q04DX003 (ip), vehicle: saline with Tween-80) is 109 % of control; the T/C (dose: 37.5 mg/kg/injection, schedule: Q04DX003 (ip), vehicle: saline with Tween-80) is 109 % of control; the T/C (dose: 66.0 mg/kg/injection, schedule: Q04DX003 (ip), vehicle: saline with Tween-80) was 113 % of control; the T/C (dose: 75.0 mg/kg/injection, schedule: Q04DX003 (ip), vehicle: saline with Tween-80) was 118 % of control; the T/C (dose: 150.0 mg/kg/injection, schedule: Q04DX003 (ip), vehicle: saline with Tween-80) was 118 % of control.

Regarding `CN(C)c1ccc(-c2nc3c(=O)n(C)c(=O)n(C)c3nc2-c2ccc(N(C)C)cc2)cc1`, the T/C runs as follows: (dose: 100.0 mg/kg/injection, schedule: Q04DX002 (ip), vehicle: saline with Tween-80) 106 % of control; (dose: 200.0 mg/kg/injection, schedule: Q04DX002 (ip), vehicle: saline with Tween-80) 111 % of control; (dose: 400.0 mg/kg/injection, schedule: Q04DX002 (ip), vehicle: saline with Tween-80) 116 % of control.
